Experimental data: patent publication US20230117205A1, “B7-H4 ANTIBODY-DRUG CONJUGATES FOR THE TREATMENT OF CANCER” (SEAGEN INC., priority 2021, published 2023)

Tests used:
[1] = test system: SKBR3, MX-1, and 293T-B7-H4; assay: NK cell-mediated ADCC; format: cell-based, human; conditions: NK effector cells, 4 hours
Source text: Antibodies directed to cell surface antigens can elicit direct killing of antibody-coated cells, including induction of ADCC.
Human PBMCs were thawed into pre-warmed R10+ Media (RPMI 1640 (Gibco #11875-093) with 10% HI-FBS (Gibco #16140-071), 1× sodium pyruvate (Gibco #11360-070), and 1× GlutaMax (Gibco #35050-061)) and then an EasySep NK isolation kit (StemCell #17955) was used to purify NK cells. Target tumor cells were lifted off using TrypLE Express (Gibco #12604-021) and then plated into a U-bottom plate (Falcon #353077) at 40,000 cells/well (50 μL/well) for MX-1 and 293T-B7-H4 (HEK 293T cells engineered to express human B7-H4) and 20,000 cells/well (50 μL/well) for SKBR3 cell line. […] (NOTE: actual starting concentration was 6000 ng/mL to account for the inherent 3× dilution of the assay.) Then 200,000 cells/well (50 μL/well) of isolated NK cells were plated into the U-bottom plate (effector: tumor ratios were as follows: NK:SKBR3 cells 10:1; NK:MX1 cells 5:1, NK:293T-B7-H4 cells 5:1). Appropriate controls included: positive control mAb and ADC and negative non-binding control mAb and ADC, NK cells only control, target cells only control, target cells maximum lysis control, and media only control. […] A CytoTox 96 Non-Radioactive Cytotoxicity Assay kit (Promega #G1780) was used to develop the signal, which was read using 490 nm wavelength on a SpectraMax 190 instrument.

[2] = test system: WIL2S and RAJI cells transduced to express human B7-H4; assay: CDC, Sytox Green, 10% human serum; format: cell-based
Protocol: Antibodies have the ability to recruit complement proteins triggering complement-dependent cytotoxicity (CDC).
Using complement media (RPMI containing 10% human serum (Complement Technology, Inc. #NHS)), test antibodies and controls were titrated with a 3-fold dilution ranging from 50-0.02 μg/mL and 100 μL/well of the titrations were plated over the target cells. To measure total cell death, 2% Triton X (EMD Millipore Corp. #648463-50ML) was used as a positive control. Test plate was incubated for 2 hours at 37° C. in a humidity-controlled incubator and then Sytox Green fluorescence was read on an Envision plate reader.

[3] = test system: MDA-MB-468 xenograft model; assay: MDA-MB-468 xenograft, Study MDAMB468-6; format: in vivo, NSG mice; conditions: 3 mg/kg, three weekly doses, i.p.
Protocol: Tumor volume was measured twice weekly until study day 80.
Female NSG mice were implanted with 1×10^6 MDA-MB-468 cells in 25% Matrigel H C (Corning #354248) subcutaneously. Once tumor volumes reached 100 mm^3, mice were randomized into treatment groups of 5 mice each and dosed with 0.3, 1, or 3 mg/kg every seven days for three total doses (q7dx3). Twenty-four hours prior to receiving each ADC dose, each animal was treated with 10 mg/kg hIVIG (Grifolds). Tumor volumes were measured twice per week, animals were euthanized when tumor volume reached 700-1000 mm^3. Stock concentrations of ADC were diluted to desired concentration (with 0.01% Tween20 in PBS) and injected i.p. into each treatment group

[4] = test system: Ovarian carcinoma PDX models; assay: Ovarian carcinoma patient-derived xenograft models; format: in vivo, mice; conditions: 3 mg/kg q7dx3; for % TGI: vs untreated
Protocol: Tumor size and body weight were measured twice weekly, and the study was terminated when tumors in the control group reached 1500 mm^3 or up to Day 28, whichever occurred first, or maximum up to Day 60.
Specifically, Stock mice were bilaterally implanted with fragments from one of the Champions TumorGraft® models representing human HR^+ BC or ovarian cancer. After the tumors reached 1000-1500 mm^3, they were harvested, and the tumor fragments were implanted subcutaneously (s.c.) in the left flank of the female study mice. Each animal was implanted with a specific passage lot and documented. Tumor growth was monitored twice a week using digital calipers, and the tumor volume (TV) was calculated using the formula (0.52×[length×width^2]). When the TV reached approximately 150-300 mm^3, animals were matched by tumor size and assigned into control (untreated) or treatment groups (n=3 animals/group). Each animal in the treatment groups was dosed with 3 mg/kg of ADC every seven days for three total doses (q7dx3). Tumor size and body weight were measured twice weekly, and the study was terminated when tumors in the control group reached 1500 mm^3 or up to Day 28, whichever occurred first, or maximum up to Day 60.
Inhibition of tumor growth was determined by calculating the percent TGI on the day at which animals in the control group were terminated (100%×[1−(final MTV−initial MTV of a treated group)/(final MTV−initial MTV of the control group)]). Treatment started on Day 0.

[5] = Non-human primate (NHP) and rat tox study; format: in vivo, rat and cynomolgus monkey
Source text: The nonclinical safety profile of SGN-B7H4V supports the proposed initial clinical development plan. […] The hematologic toxicity is consistent with the mechanism of action (MOA) for MMAE.

[6] = test system: MDA-MB-468 xenograft tumors; assay: Gene ontology (GO) term analysis of treated MDA-MB-468 xenograft tumors; format: in vivo, NSG mice
Protocol: For RNAseq, RNA was extracted from tumors and library preparation for […] sequencing was performed using PolyA selection. RNA was sequenced using the Illumina HiSeq platform 2×150 bp configuration. RNA extraction, library preparation, and sequencing were performed by GENEWIZ. Adaptors were trimmed using cutadapt version 1.16, reads were aligned to a composite (GRCh38(h38)/GRCm38(mm10)) genome using STAR version 2.5.2. Transcripts and genes were quantitated via RSEM version 1.2.31. Quantitative and statistical differences were determined between groups of samples using DESeq2 version 1.28.1. GO term and gene set enrichment analysis was performed with clusterProfiler version 3.16.1, msigdbr version 7.1.1, AnnotationDbi version 1.50.3, org.Mm.eg.db version 3.11.4, and org.Hs.eg.db version 3.11.4. […] Only GO terms with a p-value and q-value of 0.05 or less were retained. Figures were replotted using GraphPad Prism. The raw fastq files as well as the mapped BAM files are stored on the Seagen linux storage location: /fc1/jobs/research/RNASeq/.

SGN-B7H4V: ADC of fully human IgG1 anti-B7-H4 mAb conjugated to monomethyl auristatin E (MMAE) via a protease-cleavable valine-citrulline linker (vedotin)
ADCC response [1]: comparable ADCC responses | lysis (CDC) [2]: did not induce lysis | anti-tumor activity (tumor volume) [3]: transient regression of tumor volumes in all mice | % TGI ([4]; Ovarian_1, Day 48): 110% | % TGI ([4]; Ovarian_2, Day 41): 103% | % TGI ([4]; Ovarian_3, Day 53): 84% | % TGI ([4]; Ovarian_4, Day 52): −57% | % TGI ([4]; Ovarian_5, Day 36): 83% | % TGI ([4]; Ovarian_6, Day 23): −33% | PDX models with tumor regression or tumor growth delay (e.g. TGI>50%) ([4]; ovarian carcinoma): 4/6 | primary target organs of toxicity ([5]; pivotal GLP and non-GLP studies): hematological system, testes, and ovaries | tolerability ([5]; rat and cynomolgus monkey): tolerated in the rat and cynomolgus monkey | human gene categories related to apoptosis/programmed cell death pathways ([6]; compared to B7H41001 mAb-DM1): elevated | mouse immune-related GO terms ([6]; compared to B7H41001 mAb-DM1): increased | human gene categories related to the immune response ([6]; compared to B7H41001 mAb-DM4): elevated | mouse immune-related gene categories ([6]; compared to B7H41001 mAb-DM4): elevated
